Source: US20100215618A1, “NOVEL COMPOUNDS - 644” (Arrow Therapeutics Limited, priority 2009, published 2010)
Read-outs that look alike come from different tables or passages of the source.

What was measured:
[1] = system: HCV replicon cells Huh 9B (genotype 1b); experiment: 1b Replicon Assay (luciferase readout); assay type: cell-based; details: Hepatitis C virus, Huh 9B replicon cells, 72 h, luciferase activity
in vitro = in vitro ADME, Canine; details: dog, MDCK
Description: Cells used: MDCK (Madin-Darby Canine Kidney) cells, ATCC collection # CCL-34, are used to model the intestinal barrier. Cell culture conditions: cells were cultured at 37° C. in a 5% CO2 environment and split twice a week on seeding at 4×10^5 cells/flask (75 cm^2) on day 1 and 2×10^5 cells/flask on day 4. The culture medium consisted of MEM+Earle's-L Glutamine (Gibco #21090-022) supplemented with 10% Australian Fetal Calf Serum (Sigma #F6178), 2 mM L-Glutamine (Gibco #25030-024) and 1× Non Essential Amino Acids (Gibco #11140-035)
On day 1, a 24-well plate (Sarstedt, #83.1836.300) was filled with individual 3 lam pore membrane inserts (Millipore, #PITP 012 50). Each plate allows the testing of a cocktail of 3 control compounds and 11 test compounds in duplicate. The wells (outside the inserts) were filled with 500 μl of culture medium.
A flask of cells was trypsinised and a cell count carried out. Cells were diluted to 1.2×10^5 cells/ml (1×10^5 cells/cm^2) and 500 μl dispensed in each insert on the 24-well plate. The plate was incubated at 37° C. in a 5% CO2 environment for 48 hours.
On day 3, the culture medium was removed from the wells, then the inserts and is replaced with fresh culture medium in the wells, then the inserts (500111 per well and insert) The plate was incubated at 37° C. in a 5% CO2 environment for 24 hours.
On day 4, the controls cocktail and test compounds solutions were made up in HBSS buffer (Hank's Balanced Salt Solution, Gibco #14025-050) at 1011M. The final controls and test compounds concentration in the assay was 10 μM, and DMSO concentration maintained at 0.1% (0.3% for the controls cocktail). The controls cocktail was made up of Atenolol (Sigma # A-7655), Dexamethasone (Sigma #D-1756) and Propranolol (Sigma # P-0884).
A 24-well plate was filled with 500 μl of HBSS buffer per well (assay plate) The culture medium was removed from the wells and inserts. The inserts were washed three times with approximately 500 μl of HBSS buffer. The inserts were transferred to the assay plate. Controls cocktail and test compounds solutions were dispensed inside the inserts (500 μl per insert), in duplicates. The assay plate was incubated at 37° C. in a 5% CO2 environment for 2 hours.
After 2 hours, the inserts were removed from the assay plate and transferred into a new 24-well plate (wash plate) The assay plate containing the receiver solutions was left aside for later sampling. To measure the mass balance, 150 μl were sampled from each insert (donor solutions) and dispensed into 150 μl of HPLC-grade Acetonitrile (Fisher Scientific) containing an internal standard and 0.05% formic acid.
The donor solutions were aspirated and discarded from each insert, and the inserts washed once with approximately 500 μl of HBSS buffer. A 24-well plate was filled with 500 μl of HBSS buffer per well (monolayer integrity plate) A Lucifer Yellow (Sigma #L0144) solution was made up at 1001.1M in HBSS buffer. The empty inserts were transferred into the monolayer integrity plate and filled with 500 μl of the Lucifer Yellow solution to determine the cell monolayers integrity and leftover of the solution was kept in a fridge. The plate was incubated at 37° C. in a 5% CO2 environment for 2 hours.
In the meantime, 150 μl were sampled from the assay plate (receiver solutions) and dispensed into 150 μl of HPLC-grade Acetonitrile containing an internal standard and 0.05% formic acid. A calibration curve was made for each mix of compounds (as appropriate depending on compounds molecular weights) A 10 μM mix of compounds in HBSS buffer was diluted 1:1 in HPLC-grade Acetonitrile containing an internal standard and 0.05% formic acid. A 1:1 mix of HBSS buffer and HPLC-grade Acetonitrile containing an internal standard and 0.05% formic acid was made up and used to make up the calibration curve (2 fold dilutions), with concentrations ranging from 10 μM to 0.078 μM. […]

[2] = system: HCV replicon cells Huh 9B; assay type: cell-based; details: Huh 9B replicon cells, 72 h, methylene blue, total cell area reduced by 50%
Description: HCV replicon cells Huh 9B (ReBlikon), containing the firefly luciferase-ubiquitin-neomycin phosphotransferase fusion protein and EMCV-IRES driven HCV polyprotein with cell culture adaptive mutations.
Replicon cells were trypsinised and counted. Cells were diluted to 100,000 cells/ml and 100 μl used to seed one opaque white 96-well plate (for the replicon assay) and one flat-bottomed clear plate (for the tox assay) for every five compounds to be tested for IC50. Wells G12 and H12 were left empty in the clear plate as the blank. Plates were then incubated at 37° C./5% CO2 for 24 h.
On the following day compound dilutions were prepared in medium at twice their desired final concentration in a clear round bottomed plate. All dilutions have a final DMSO concentration of 1%.
Controls and compounds were transferred from the dilution plates to the assay plates (containing the cells) at 100 μl/well in duplicate wells.
Exception: no compound was added to wells A1 and A2 of either plate and 100 μl of 1% DMSO was added to these instead. Plates were then incubated at 37° C./5% CO2 for 72 h.
The clear plate was stained with 100 μA 0.5% methylene blue in 50% ethanol at room temperature for 1 h, followed by solvation of the absorbed methylene blue in 100 μl per well of 1% lauroylsarcosine. Absorbance of the plate was measured on a microplate spectrophotometer (Molecular Devices) and the absorbance for each concentration of compound expressed as a proportion of the relative DMSO control. The TD50, the is concentration of drug required to reduce the total cell area by 50% relative to the DMSO controls, was calculated by plotting the absorbance at 620 nm after background substraction against drug concentration.

[3] = system: HCV genotype 1a replicon cells Htat2ANeo; experiment: 1a Replicon Assay (cell-based anti-NS5a ELISA); details: Hepatitis C virus, 72 h
Outline: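 HCV 1a Htat2ANeo replicon cells (Et2AN control cells) exposed to compound for 72 h at 37° C without G418/blasticidin. NS5a quantified by cell-based ELISA (anti-NS5a, HRP/OPD, A490); IC50 from percentage reduction versus untreated control. Cytotoxicity TD50 by Cell Titre Blue fluorescence (ex 570/em 590 nm) versus DMSO controls.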

[4] = read-out: pIC50 1b Replicon (converted)
[5] = read-out: pIC50 1a Replicon (converted)

SMILES	IC50 ([1]; read-out: HCV IC50 1b Replicon)	IC50 [1, 4]	Papp at 2 h, 10 µM (in vitro)	HCV TD50 Replicon [2]	IC50 ([3]; read-out: HCV IC50 Elisa 1a)	IC50 [3, 5]
COC(=O)N[C@H](C(=O)N1CCC[C@@H]1c1ncc(-c2ccc(-c3ccc(C(=O)Nc4ccc(CN5CCS(=O)(=O)CC5)cc4)cc3)cc2)[nH]1)C(C)(C)C [Example 22, Methyl N-[(1S)-1-[(2R)-2-[5-[4-[4-[[4-[(1,1-dioxo-1,4-thiazinan-4-yl)methyl]phenyl]carbamoyl]phenyl]phenyl]-1H-imidazol-2-yl]pyrrolidine-1-carbonyl]-2,2-dimethyl-propyl]carbamate]	0.266 µM	0.263 µM	0.55 ×10⁻⁶ cm/s			
COC(=O)N[C@@H](C(=O)N1CCC[C@H]1c1ncc(-c2ccc(-c3ccc(C(=O)Nc4ccc(CN5CCS(=O)(=O)CC5)cc4)cc3)cc2)[nH]1)C(C)C [Example 13, Methyl N-[(1R)-1-[(2S)-2-[5-[4-[4-[[4-[(1,1-dioxo-1,4-thiazinan-4-yl)methyl]phenyl]carbamoyl]phenyl]phenyl]-1H-imidazol-2-yl]pyrrolidine-1-carbonyl]-2-methyl-propyl]carbamate]	0.0422 µM	0.0417 µM	0.3 ×10⁻⁶ cm/s	>25 µM		
COC(=O)N[C@H](C(=O)N1CCC[C@H]1c1ncc(-c2ccc(-c3cccc(C(=O)Nc4ccc(CN5CCS(=O)(=O)CC5)cc4)c3)cc2)[nH]1)c1ccccc1 [Example 30, Methyl N-[(1S)-2-[(2S)-2-[5-[4-[3-[[4-[(1,1-dioxo-1,4-thiazinan-4-yl)methyl]phenyl]carbamoyl]phenyl]phenyl]-1H-imidazol-2-yl]pyrrolidin-1-yl]-2-oxo-1-phenyl-ethyl]carbamate]	0.0012 µM	0.0012 µM		>25 µM	2.48 µM	2.45 µM
COC(=O)N[C@@H](C)C(=O)N1CCC[C@H]1c1ncc(-c2ccc(-c3ccc(C(=O)Nc4ccc(CN5CCS(=O)(=O)CC5)cc4)cc3)cc2)[nH]1 [Example 4, Methyl N-[(1S)-2-[(2S)-2-[5-[4-[4-[[4-[(1,1-dioxo-1,4-thiazinan-4-yl)methyl]phenyl]carbamoyl]phenyl]phenyl]-1H-imidazol-2-yl]pyrrolidin-1-yl]-1-methyl-2-oxoethyl]carbamate]	0.00118 µM	0.00117 µM		22.44 µM	0.0259 µM	0.0257 µM
COC(=O)N[C@H](C(=O)N1CCC[C@H]1c1ncc(-c2ccc(-c3cccc(C(=O)Nc4ccc(CN5CCS(=O)(=O)CC5)cc4)c3)cc2)[nH]1)C(C)C [Example 28, Methyl N-[(1S)-1-[(2S)-2-[5-[4-[3-[[4-[(1,1-dioxo-1,4-thiazinan-4-yl)methyl]phenyl]carbamoyl]phenyl]phenyl]-1H-imidazol-2-yl]pyrrolidine-1-carbonyl]-2-methyl-propyl]carbamate]	0.00732 µM	0.00724 µM		>25 µM	2.08 µM	2.09 µM
CCN(CC)[C@@H](C(=O)N1CCC[C@H]1c1ncc(-c2ccc(-c3cccc(C(=O)Nc4ccc(CN5CCS(=O)(=O)CC5)cc4)c3)cc2)[nH]1)c1ccccc1 [Example 32, 3-[4-[2-[(2S)-1-[(2R)-2-(diethylamino)-2-phenyl-acetyl]pyrrolidin-2-yl]-1H-imidazol-5-yl]phenyl]-N-[4-[(1,1-dioxo-1,4-thiazinan-4-yl)methyl]phenyl]benzamide]	0.00021 µM	0.000209 µM		>25 µM	1.15 µM	1.15 µM
CN(C)[C@@H](C(=O)N1CCOC[C@H]1c1ncc(-c2ccc(-c3ccc(C(=O)Nc4ccc(CN5CCS(=O)(=O)CC5)cc4)cc3)cc2)[nH]1)c1ccccc1 [Example 49, 4-[4-[2-[(3R)-4-[(2R)-2-(dimethylamino)-2-phenyl-acetyl]morpholin-3-yl]-1H-imidazol-5-yl]phenyl]-N-[4-[(1,1-dioxo-1,4-thiazinan-4-yl)methyl]phenyl]benzamide]	0.00088 µM	0.000891 µM		19.7 µM	0.0778 µM	0.0776 µM
CC(C)(C)OC(=O)N[C@H](C(=O)N1CCOC[C@H]1c1ncc(-c2ccc(-c3ccc(C(=O)Nc4ccc(CN5CCS(=O)(=O)CC5)cc4)cc3)cc2)[nH]1)c1ccccc1 [Example 48, tert-Butyl N-[(1S)-2-[(3R)-3-[5-[4-[4-[[4-[(1,1-dioxo-1,4-thiazinan-4-yl)methyl]phenyl]carbamoyl]phenyl]phenyl]-1H-imidazol-2-yl]morpholin-4-yl]-2-oxo-1-phenyl-ethyl]carbamate]	0.00051 µM	0.000513 µM		>25 µM	0.0526 µM	0.0525 µM
COC(=O)N[C@@H](C)C(=O)N1CCC[C@@H]1c1ncc(-c2ccc(-c3ccc(C(=O)Nc4ccc(CN5CCS(=O)(=O)CC5)cc4)cc3)cc2)[nH]1 [Example 21, Methyl N-[(1S)-2-[(2R)-2-[5-[4-[4-[[4-[(1,1-dioxo-1,4-thiazinan-4-yl)methyl]phenyl]carbamoyl]phenyl]phenyl]-1H-imidazol-2-yl]pyrrolidin-1-yl]-1-methyl-2-oxo-ethyl]carbamate]	0.418 µM	0.417 µM	1.4 ×10⁻⁶ cm/s			
COC(=O)N[C@H](C(=O)N1CCC[C@H]1c1ncc(-c2ccc(-c3ccc(C(=O)Nc4ccc(CN5CCS(=O)(=O)CC5)cc4)cc3)cc2)[nH]1)[C@@H](C)O [Example 17, Methyl N-[(1S,2R)-1-[(2S)-2-[5-[4-[4-[[4-[(1,1-dioxo-1,4-thiazinan-4-yl)methyl]phenyl]carbamoyl]phenyl]phenyl]-1H-imidazol-2-yl]pyrrolidine-1-carbonyl]-2-hydroxy-propyl]carbamate]	0.0003 µM	0.000302 µM	0.4 ×10⁻⁶ cm/s	18.4 µM		
